The record followed here is patent US20100144712A1 (priority 2007, published 2010).

Each structure is given as a SMILES string. ≈ marks a conversion by molar mass, not a printed value. Read-outs that look alike come from different tables or passages of the source.

Holding throughout (format): cell-based
Test [1] relates to Aspergillus fumigatus MYA-1163. Briefly: In vitro antifungal activity (MIC80), Aspergillus fumigatus MYA-1163. As to conditions: Aspergillus fumigatus, MYA1163; Table 3, MYA-1163; read-out: Minimal inhibitory concentration (MIC80). The procedure: (§1) In vitro antifungal activities of the inventive antifungal compounds were evaluated using test strains including Candida albican (ATCC 90873, 204276, 62342, 64124, 64550, 96901, MYA-573, MYA-574, MYA-575, MYA-576, MYA-1003) and Aspergillus fumigatus (ATCC 16424). Test samples and positive control samples were prepared by dissolving the inventive compounds and comparative compounds, i.e., amphotericin B, fluconazole and itraconazole, in DMSO, respectively, and each successively diluted with medium to obtain test and positive control solutions having test compound concentrations of 0.125 μg/ml to a maximum concentration not generating turbidity. Minimal inhibitory concentration (MIC80) of each compound was determined as the lowest concentration of the test compounds required to reduce growth by 80% relative to a control strain not treated.
(§2) 3) Preparation of test samples: the inventive compounds and comparative compounds were each diluted with DMSO to obtain 1 to 2 ml of a test sample in a concentration of 100-folds of the determining maximum concentration (256 μg/ml).
(§3) The test samples were each successively diluted with RPMI 1640 to obtain test solutions having concentrations of […] in a 12×75 mm sterilized disposable culture tube. The final concentration of DMSO was adjusted to […] (v/v).
(§4) Candida albican strains were each subcultured in Sabourad Dextrose Agar, YM Agar or Potato Dextrose Agar medium at 35° C. for 2˜3 days. In the case of yeasts, a single colony was taken from prominent colonies and suspended in 0.85% sterile physiological saline solution and the turbidity of the suspension was adjusted to 80˜82% at 530 nm, and then diluted 50-fold with RPMI 1640 medium to 1.0×10^3˜5.0×10^3 CFU/ml. The turbidity of fungi was adjusted to 80˜82% and the suspension was diluted 50-fold to […]. Aspergillus fumigatus strains were subcultured in Malt Extract Agar for 7˜10 days, and a single colony was taken from prominent colonies and suspended in 0.85% sterile physiological saline solution and the suspension was adjusted to 0.108 at 530 nm, and then diluted 1000-fold with RPMI 1640 medium to 0.4×10^2˜5×10^4 CFU/ml. The turbidity of fungi was adjusted to 80˜82% and the suspension was diluted 50-fold to 0.4102˜0.5104 CFU/ml.
(§5) The strain solutions thus obtained were each seeded into a sterilized 96-well microplate, 0.1 ml of each test solution were added thereto, and […] of alamarblue was treated to each well (Biosource, #DAL1100). This procedure was repeated 2 times.
(§6) Minimal inhibitory concentration (MIC80) of each compound was determined as the lowest concentration of the test compounds required to reduce growth by 80% relative to a control strain not treated.
(§7) MIC80 of each of the compounds of which antifungal activities can be confirmed by Table 2 was determined using other test strains, i.e., Aspergillus fumigatus ATCC 16424 and MYA-1163, Aspergillus terreus ATCC 28301, Aspergillus flavus ATCC MYA-1004, and Aspergillus niger ATCC 9142.

Test [2] deals with Candida albican ATCC MYA-576. Nature of the test: In vitro antifungal activity (MIC80), Candida albican ATCC MYA-576. The conditions noted are these: Candida; Table 2, MYA 576; read-out: Minimal inhibitory concentration (MIC80). An outline of the steps: (§8)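 MIC80 is the lowest concentration that cuts growth by 80% compared with untreated cells, with alamarBlue as the growth read-out. Compounds were serially diluted in RPMI 1640 (0.25–256 […]; DMSO 2% v/v final) and added to 1.0×10^3–5.0×10^3 CFU/ml yeast suspensions, in duplicate runs.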

Test [3] concerns Candida albican ATCC 62342. Briefly: In vitro antifungal activity (MIC80), Candida albican ATCC 62342. As to conditions: Candida, ATCC62342; Table 2, 62342; read-out: Minimal inhibitory concentration (MIC80). An outline of the steps: as §8
The test system of test [4] is Aspergillus flavus ATCC MYA-1004. Briefly: In vitro antifungal activity (MIC80), Aspergillus flavus ATCC MYA-1004. The conditions noted are these: Aspergillus flavus; Table 3, MYA-1004; read-out: Minimal inhibitory concentration (MIC80). On the procedure: as §1, §2, §3, §4, §5, §6, §7
Test [5] relates to Candida albican ATCC MYA-1003. Briefly: In vitro antifungal activity (MIC80), Candida albican ATCC MYA-1003. The conditions noted are these: Candida; Table 2, MYA 1003; read-out: Minimal inhibitory concentration (MIC80). An outline of the steps: as §8
The subject of test [6] is Candida albican ATCC MYA-574. Nature of the test: In vitro antifungal activity (MIC80), Candida albican ATCC MYA-574. As to conditions: Candida; Table 2, MYA 574; read-out: Minimal inhibitory concentration (MIC80). An outline of the steps: as §8
For test [7], the system named is Candida albican ATCC 64550. Briefly: In vitro antifungal activity (MIC80), Candida albican ATCC 64550. The conditions noted are these: Candida, ATCC64550; Table 2, 64550; read-out: Minimal inhibitory concentration (MIC80). An outline of the steps: as §8
Test [8] concerns Aspergillus terreus ATCC 28301. Briefly: In vitro antifungal activity (MIC80), Aspergillus terreus ATCC 28301. The conditions noted are these: Aspergillus terreus, ATCC28301; Table 3, ATCC 28301; read-out: Minimal inhibitory concentration (MIC80). The procedure:
as §1, §2, §3, §4, §5, §6, §7

For test [9], the system named is Candida albican ATCC MYA-573. Nature of the test: In vitro antifungal activity (MIC80), Candida albican ATCC MYA-573. As to conditions: Candida; Table 2, MYA 573; read-out: Minimal inhibitory concentration (MIC80). In outline:
as §8

The test system of test [10] is Candida albican ATCC 90873. Nature of the test: In vitro antifungal activity (MIC80), Candida albican ATCC 90873. As to conditions: Candida, ATCC90873; Table 2, ATCC 90873; read-out: Minimal inhibitory concentration (MIC80). In outline: as §8
In test [11] the test system is Candida albican ATCC 96901. Briefly: In vitro antifungal activity (MIC80), Candida albican ATCC 96901. The conditions noted are these: Candida, ATCC96901; Table 2, ATCC 96901; read-out: Minimal inhibitory concentration (MIC80). An outline of the steps:
as §8

Test [12] concerns Aspergillus niger ATCC 9142. Briefly: In vitro antifungal activity (MIC80), Aspergillus niger ATCC 9142. As to conditions: Aspergillus niger, ATCC9142; Table 3, ATCC 9142; read-out: Minimal inhibitory concentration (MIC80). On the procedure:
as §1, §2, §3, §4, §5, §6, §7

For test [13], the system named is Aspergillus fumigatus (ATCC 16424). Nature of the test: In vitro antifungal activity (MIC80), Aspergillus fumigatus ATCC 16424. The conditions noted are these: Aspergillus fumigatus, read-out: Minimal inhibitory concentration (MIC80). In outline:
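Broth dilution in RPMI 1640 with 2% (v/v) final DMSO; A. fumigatus inoculum from Malt Extract Agar subculture diluted 1000-fold to 0.4×10^2˜5×10^4 CFU/ml, alamarblue added, repeated 2 times. MIC80 is lowest concentration reducing growth 80% versus untreated control.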

Test [14] relates to Candida albican ATCC 64124. Briefly: In vitro antifungal activity (MIC80), Candida albican ATCC 64124. The conditions noted are these: Candida, ATCC64124; Table 2, 64124; read-out: Minimal inhibitory concentration (MIC80). An outline of the steps: as §8
Test [15] has as its system Candida albican ATCC MYA-575. Briefly: In vitro antifungal activity (MIC80), Candida albican ATCC MYA-575. The conditions noted are these: Candida; Table 2, MYA 575; read-out: Minimal inhibitory concentration (MIC80). In outline:
as §8

Consider `C[C@@H](N1CCN(c2nc3ccc(Cl)cc3s2)CC1)[C@](O)(Cn1cncn1)c1ccc(F)cc1F` [Example 4, (2R,3R)-3-(4-(6-chlorobenzothiazol-2-yl)piperazin-1-yl)-2-(2,4-difluorophenyl)-1-(1H-1,2,4-triazol-1-yl)butan-2-ol], for which the MIC80 in [1] is 1 µg/mL (≈ 1.98 µM); in test [2], 0.125 µg/mL (≈ 0.248 µM); in test [3], 0.125 µg/mL (≈ 0.248 µM); in test [4], 1 µg/mL (≈ 1.98 µM); in test [5], over 128 µg/mL; in test [6], 0.25 µg/mL (≈ 0.495 µM). The MIC80 was determined as 0.5 µg/mL (≈ 0.99 µM) in [7]; 1 µg/mL (≈ 1.98 µM) in [8]; 0.125 µg/mL (≈ 0.248 µM) in [9]; 0.125 µg/mL (≈ 0.248 µM) in [10]; 2 µg/mL (≈ 3.96 µM) in [11]; 2 µg/mL (≈ 3.96 µM) in test [12]. Further, the MIC80 in test [13] (ATCC16424, Table 2, ATCC 16424) was 0.5 µg/mL (≈ 0.99 µM); in [13] (ATCC16424, Table 3, ATCC 16424), 0.5 µg/mL (≈ 0.99 µM); in [14] it was 8 µg/mL (≈ 15.8 µM); in test [15], 0.125 µg/mL (≈ 0.248 µM).

`C[C@@H](N1CCN(c2nc3ccc(Cl)cc3o2)CC1)[C@](O)(Cn1cncn1)c1ccc(F)cc1F` [Example 6, (2R,3R)-3-(4-(6-chlorobenzooxazol-2-yl)piperazin-1-yl)-2-(2,4-difluorophenyl)-1-(1H-1,2,4-triazol-1-yl)butan-2-ol]: the MIC80 in test [1] was 0.25 µg/mL (≈ 0.511 µM); in test [2], 0.125 µg/mL (≈ 0.256 µM); in test [3], 0.25 µg/mL (≈ 0.511 µM); in test [4], 0.25 µg/mL (≈ 0.511 µM); in test [5], over 128 µg/mL; in [6], 0.25 µg/mL (≈ 0.511 µM). For the same molecule, the MIC80 was 0.5 µg/mL (≈ 1.02 µM) in test [7]; 0.5 µg/mL (≈ 1.02 µM) in test [8]; 0.25 µg/mL (≈ 0.511 µM) in test [9]; 0.125 µg/mL (≈ 0.256 µM) in test [10]; 2 µg/mL (≈ 4.09 µM) in test [11]; 1 µg/mL (≈ 2.05 µM) in test [12]. The MIC80 in test [13] (ATCC16424, Table 2, ATCC 16424) was determined as 0.125 µg/mL (≈ 0.256 µM); in test [13] (ATCC16424, Table 3, ATCC 16424), 0.125 µg/mL (≈ 0.256 µM); in test [14], 4 µg/mL (≈ 8.18 µM); in [15], 0.125 µg/mL (≈ 0.256 µM).

`C[C@@H](N1CCN(c2nc3ccc(NCCN4CCOCC4)cc3s2)CC1)[C@](O)(Cn1cncn1)c1ccc(F)cc1F` [Example 12, (2R,3R)-3-(4-(6-(2-morpholinoethylamino)benzothiazol-2-yl)piperazin-1-yl)-2-(2,4-difluorophenyl)-1-(1H-1,2,4-triazol-1-yl)butan-2-ol]: the MIC80 amounted to 4 µg/mL (≈ 6.68 µM) in test [1]; 0.25 µg/mL (≈ 0.418 µM) in test [2]; 8 µg/mL (≈ 13.4 µM) in test [3]; 4 µg/mL (≈ 6.68 µM) in test [4]; 8 µg/mL (≈ 13.4 µM) in test [5]; 4 µg/mL (≈ 6.68 µM) in test [6]. In addition, the MIC80 came to 2 µg/mL (≈ 3.34 µM) in test [7]; 4 µg/mL (≈ 6.68 µM) in [8]; 2 µg/mL (≈ 3.34 µM) in [9]; 1 µg/mL (≈ 1.67 µM) in test [10]; 2 µg/mL (≈ 3.34 µM) in test [11]; 4 µg/mL (≈ 6.68 µM) in test [12]. The MIC80 stood at 2 µg/mL (≈ 3.34 µM) in test [13] (ATCC16424, Table 2, ATCC 16424); 2 µg/mL (≈ 3.34 µM) in [13] (ATCC16424, Table 3, ATCC 16424); 4 µg/mL (≈ 6.68 µM) in [14]; 1 µg/mL (≈ 1.67 µM) in [15].

`C[C@@H](N1CCCN(c2ccccn2)CC1)[C@](O)(Cn1cncn1)c1ccc(F)cc1F` [Example 38, (2R,3R)-2-(2,4-difluorophenyl)-3-(4-(pyridin-2-yl)-1,4-diazepan-1-yl)-1-(1H-1,2,4-triazol-1-yl)butan-2-ol]: the MIC80 is 0.5 µg/mL (≈ 1.17 µM) in [1]; 0.125 µg/mL (≈ 0.292 µM) in test [2]; 0.25 µg/mL (≈ 0.583 µM) in test [3]; 0.5 µg/mL (≈ 1.17 µM) in [4]; 64 µg/mL (≈ 149 µM) in test [5]; 2 µg/mL (≈ 4.67 µM) in test [6]. The MIC80 in test [7] came to 2 µg/mL (≈ 4.67 µM); in test [8], 1 µg/mL (≈ 2.33 µM); in test [9] it was 1 µg/mL (≈ 2.33 µM); in test [10], 0.125 µg/mL (≈ 0.292 µM); in test [11] it was 32 µg/mL (≈ 74.7 µM); in test [12], 1 µg/mL (≈ 2.33 µM). Besides, the MIC80 in test [13] (ATCC16424, Table 2, ATCC 16424) was determined as 0.125 µg/mL (≈ 0.292 µM); in test [13] (ATCC16424, Table 3, ATCC 16424), 0.125 µg/mL (≈ 0.292 µM); in test [14], 16 µg/mL (≈ 37.3 µM); in test [15], 0.125 µg/mL (≈ 0.292 µM).
